In patent US4994376A, “Detection of bacteroides gingivalis” (priority 1987, dated 1991):
Values joined by “and” are separate entries in the source; they are usually repeats but may differ in a detail not shown here. Equal values may be shown once. Read-outs that look alike come from different tables or passages of the source. Peptide text beside a SMILES is read from it.

Tests used:
Type in all cases: biochemical
[1] = test system: B. levii
Protocol: (§1) The enzyme activity was measured by the chromogenic properties of N-CBz-glycyl-glycyl-L-arginine-β-naphthylamide which upon hydrolysis gives a visible color. The aminopeptidase activities listed in the table reflect the nanomoles of β-naphthylamine liberated after 60 minutes under the conditions described below.
(§2) After mixing, the solution is incubated for 1 hour at 37° C. and then 0.4 ml of a solution of stabilized diazonium salt, Fast Garnet GBC (0.5 mg/ml) in a 1M acetic acid buffer (pH 4.2), containing 10% Tween 20 was added to the mixture. After standing for 15 minutes at room temperature, the color reaction can be read manually by comparison with standard solutions or the absorbancy can be determined using a spectrophotometer at 525 nm. The reaction mixture without enzyme solution is used as a control.

[2] = test system: B. loescheii
Protocol: as §1, §2

[3] = test system: B. mel. ss. intermedius
Protocol: as §1, §2

[4] = test system: C. ochracea
Protocol: as §1, §2

[5] = test system: Capnocytophaga gingivalis
Protocol: as §1, §2

[6] = test system: Capnocytophaga sp.
Protocol: as §1, §2

[7] = test system: B. corporis; assay: Aminopeptidase activity on β-naphthylamide substrates
Protocol: as §1, §2

[8] = test system: B. denticola; assay: as above
Protocol: as §1, §2

[9] = test system: B. intermedius; assay: as above
Protocol: as §1, §2

[10] = test system: B. melaninogenicus; assay: as above
Protocol: as §1, §2

[11] = test system: C. sputigena; assay: as above
Protocol: as §1, §2

[12] = test system: "Anaerobic vibrio"
Protocol: as §1, §2
(§3) The enzyme activity and the aminopeptidase activities were determined in the manner described above in regard to Table I.

[13] = test system: A. seminis
Protocol: as §1, §2, §3

[14] = test system: A. viscosus
Protocol: as §1, §2, §3

[15] = test system: Campylobacter sputorum
Protocol: as §1, §2, §3

[16] = test system: Eikenella corrodens
Protocol: as §1, §2, §3

[17] = test system: Fusobacterium nucleatum
Protocol: as §1, §2, §3

[18] = test system: S. mutans
Protocol: as §1, §2, §3

[19] = test system: S. sanguis
Protocol: as §1, §2, §3

[20] = test system: V. parvula
Protocol: as §1, §2, §3

[21] = test system: Veillonella sp.
Protocol: as §1, §2, §3

[22] = test system: A. equuli; assay: Aminopeptidase activity on β-naphthylamide substrates
Protocol: as §1, §2, §3

[23] = test system: A. suis; assay: as above
Protocol: as §1, §2, §3

[24] = test system: F. periodonticum; assay: as above
Protocol: as §1, §2, §3

[25] = test system: Haemophilus aphrophilus; assay: as above
Protocol: as §1, §2, §3

[26] = test system: L. fermentum; assay: as above
Protocol: as §1, §2, §3

[27] = test system: Lactobacillus casei; assay: as above
Protocol: as §1, §2, §3

[28] = test system: Veillonella alcalesens; assay: as above
Protocol: as §1, §2, §3

Question: `NCCCC[C@H](N)C(=O)N1CCC[C@H]1C(=O)O` [Lys-Pro, Lysyl-proline] (H-Lys-Pro-OH) was tested. Which Aminopeptidase activity [1] did it give?
Answer: The Aminopeptidase activity was 51 and 54.

Question: And the Aminopeptidase activity [2]?
Answer: Its Aminopeptidase activity is 81 and 89.

Question: And the Aminopeptidase activity [3]?
Answer: Its Aminopeptidase activity is 54 and 75 and 69.

Question: What about the Aminopeptidase activity [4] of the same molecule?
Answer: Its Aminopeptidase activity is 108.

Question: What about the Aminopeptidase activity [5] of the same molecule?
Answer: Its Aminopeptidase activity is 176.

Question: What about the Aminopeptidase activity [6] of the same molecule?
Answer: The Aminopeptidase activity was 35.

Question: What about the Aminopeptidase activity [7] of the same molecule?
Answer: The Aminopeptidase activity was 75.

Question: And the Aminopeptidase activity [8]?
Answer: Its Aminopeptidase activity is 86.

Question: And the Aminopeptidase activity [9]?
Answer: The Aminopeptidase activity was 63.

Question: What about the Aminopeptidase activity [10] of the same molecule?
Answer: Its Aminopeptidase activity is 70.

Question: What about the Aminopeptidase activity [11] of the same molecule?
Answer: Its Aminopeptidase activity is 86.

Question: What about the Aminopeptidase activity [12] of the same molecule?
Answer: Its Aminopeptidase activity is 3.

Question: What about the Aminopeptidase activity [13] of the same molecule?
Answer: The Aminopeptidase activity was 0.

Question: What about the Aminopeptidase activity [14] of the same molecule?
Answer: Its Aminopeptidase activity is 5 and 7.

Question: What about the Aminopeptidase activity [15] of the same molecule?
Answer: Its Aminopeptidase activity is 3.

Question: What about the Aminopeptidase activity [16] of the same molecule?
Answer: The Aminopeptidase activity was 0.

Question: And the Aminopeptidase activity [17]?
Answer: The Aminopeptidase activity was 2 and 1.

Question: And the Aminopeptidase activity ([17]; strain D31A-24, β-naphthylamine liberated after 60 minutes, 37° C.)?
Answer: Its Aminopeptidase activity is 2 nmol.

Question: And the Aminopeptidase activity [18]?
Answer: Its Aminopeptidase activity is 14.

Question: And the Aminopeptidase activity [19]?
Answer: The Aminopeptidase activity was 5 and 4.

Question: What about the Aminopeptidase activity [20] of the same molecule?
Answer: The Aminopeptidase activity was 0.

Question: And the Aminopeptidase activity [21]?
Answer: The Aminopeptidase activity was 1.

Question: And the Aminopeptidase activity [22]?
Answer: The Aminopeptidase activity was 0.

Question: What about the Aminopeptidase activity [23] of the same molecule?
Answer: Its Aminopeptidase activity is 0.

Question: And the Aminopeptidase activity [24]?
Answer: The Aminopeptidase activity was 1.

Question: And the Aminopeptidase activity [25]?
Answer: The Aminopeptidase activity was 0.

Question: What about the Aminopeptidase activity [26] of the same molecule?
Answer: Its Aminopeptidase activity is 0.

Question: What about the Aminopeptidase activity [27] of the same molecule?
Answer: The Aminopeptidase activity was 0.

Question: And the Aminopeptidase activity [28]?
Answer: Its Aminopeptidase activity is 1.
